In patent US10172917B2, “Targeted oesophageal administration of ZN-α2-glycoproteins (ZAG), methods and formulations thereof” (ASTON UNIVERSITY, priority 2012, dated 2019):
Entries after “also recorded” stand apart in the source; their conditions may differ.

Key:
[1] = system: ob/ob mice; test: Oral ZAG in drinking water to ob/ob mice: body weight, rectal temperature, urinary glucose excretion; assay type: in vivo, mouse
Method: Obese (ob/ob) mice (average weight 65 g) were bred in a colony, and were kept in an air conditioned room at 22+2° C. with ad libitum feeding of a rat and mouse breeding diet (Special Diet Services, Witham, UK) and tap water. […] Animals were grouped (n=5) to receive either ZAG/PBS (50 μg day^−1), or PBS in their drinking water, the experiment was repeated three times after a power analysis was performed. […] The ZAG was replaced every 48 h. […] The dose of ZAG was chosen to be the same as that previously administered i.v. (1), so that a direct comparison could be made, between the two routes. Body weight, food and water intake, urinary glucose excretion, and body temperature, determined by the use of a rectal thermometer (RS Components, Northants, UK), were measured daily. A glucose tolerance test was performed on day 3. Animals were fasted for 12 h, followed by oral administration of glucose (1 gkg^−1 in a volume of 100 μl by gavage). Blood samples were removed from the tail vein at 15, 30, 60 and 120 min and used for the measurement of glucose. Urinary glucose was measured by collecting 0.5 ml urine and testing glucose concentration using a Boots glucose monitor. After 8 days of treatment the animals were terminated by cervical dislocation, tissues were removed and rapidly frozen in liquid nitrogen, and maintained at −80° C. Future work would be to repeat this work in diet-induced animals as alternative to a model with gene alteration, although previous studies have shown the ob/ob mouse to be a good indicator of potential human treatments. Animal studies were conducted under Home Office Licence according to the UKCCCR Guidelines for the care and use of laboratory animals.

[2] = system: ob/ob mice; test: Oral glucose tolerance test in ob/ob mice after 3 days of oral ZAG; assay type: in vivo, mouse; conditions: oral ZAG + propanolol 40 mgkg^−1, day 3
Method: Animals were grouped (n=5) to receive either ZAG/PBS (50 μg day^−1), or PBS in their drinking water, the experiment was repeated three times after a power analysis was performed. […] The ZAG was replaced every 48 h. One group of mice receiving ZAG were also administered propanolol (40 mgkg^−1, p.o.) daily. The dose of ZAG was chosen to be the same as that previously administered i.v. (1), so that a direct comparison could be made, between the two routes. Body weight, food and water intake, urinary glucose excretion, and body temperature, determined by the use of a rectal thermometer (RS Components, Northants, UK), were measured daily. A glucose tolerance test was performed on day 3. Animals were fasted for 12 h, followed by oral administration of glucose (1 gkg^−1 in a volume of 100 μl by gavage). Blood samples were removed from the tail vein at 15, 30, 60 and 120 min and used for the measurement of glucose. Urinary glucose was measured by collecting 0.5 ml urine and testing glucose concentration using a Boots glucose monitor. After 8 days of treatment the animals were terminated by cervical dislocation, tissues were removed and rapidly frozen in liquid nitrogen, and maintained at −80° C. […] Animal studies were conducted under Home Office Licence according to the UKCCCR Guidelines for the care and use of laboratory animals.

[3] = system: ob/ob mice; test: Serum metabolite and insulin levels in ob/ob mice after ZAG administration; assay type: in vivo, mouse; conditions: ob/ob mice, oral ZAG + propanolol
Text: FCS (foetal calf serum) was from Biosera (Sussex, UK), while DMEM (Dulbecco's modified Eagles Medium) was from PAA (Somerset, UK) and Freestyle medium was purchased from Invitrogen (Paisley, UK). Hybond A nitrocellulose membranes and peroxidise—conjugated rabbit anti-mouse antibody were from GE Healthcare (Bucks, UK), while enhanced chemiluminescene (ECL) development kits were purchased from Thermo Scientific (Northumberland, UK). Mouse monoclonal antibodies to full-length human and mouse ZAG were from Santa Cruz Biotechnology (Santa Cruz, Calif. A mouse insulin ELISA kit was purchased from DRG (Marburg, Germany) and glucose measurements in both urine and plasma were made using a Boots (Nottingham, UK) glucose kit. L-[U-^14C] tyrosine (sp.act 16.7 GBqmmol^−1) was purchased from Perkin Elmer Ltd, (Cambridge, UK), while 2-[1-^14C] deoxy-D-glucose (sp.act 1.85 GBqmmol^−1) was from American Radiolabeled Chemicals (Cardiff, UK).
Obese (ob/ob) mice (average weight 65 g) were bred in a colony, and were kept in an air conditioned room at 22+2° C. with ad libitum feeding of a rat and mouse breeding diet (Special Diet Services, Witham, UK) and tap water. […] Animals were grouped (n=5) to receive either ZAG/PBS (50 μg day^−1), or PBS in their drinking water, the experiment was repeated three times after a power analysis was performed. […] The ZAG was replaced every 48 h. One group of mice receiving ZAG were also administered propanolol (40 mgkg^−1, p.o.) daily. The dose of ZAG was chosen to be the same as that previously administered i.v. (1), so that a direct comparison could be made, between the two routes. Body weight, food and water intake, urinary glucose excretion, and body temperature, determined by the use of a rectal thermometer (RS Components, Northants, UK), were measured daily. A glucose tolerance test was performed on day 3. Animals were fasted for 12 h, followed by oral administration of glucose (1 gkg^−1 in a volume of 100 μl by gavage). Blood samples were removed from the tail vein at 15, 30, 60 and 120 min and used for the measurement of glucose. Urinary glucose was measured by collecting 0.5 ml urine and testing glucose concentration using a Boots glucose monitor. After 8 days of treatment the animals were terminated by cervical dislocation, tissues were removed and rapidly frozen in liquid nitrogen, and maintained at −80° C. Future work would be to repeat this work in diet-induced animals as alternative to a model with gene alteration, although previous studies have shown the ob/ob mouse to be a good indicator of potential human treatments. Animal studies were conducted under Home Office Licence according to the UKCCCR Guidelines for the care and use of laboratory animals.

[4] = system: murine ZAG; test: Western blotting of murine ZAG in serum and WAT of ob/ob mice; assay type: in vivo, mouse; conditions: ob/ob mice, oral ZAG + propanolol 40 mgkg^−1
Method: Tissues were thawed, washed in PBS and lysed in Phosphosafe™ Extraction reagent for 5 min at room temperature, followed by sonication at 4° C. Cytosolic protein (5-20 ug) formed by centrifugation at 18,000 g for 5 min at 4° C., was resolved on 12% SDS PAGE by electrophoresis at 180V for about 1 h. To determine ZAG in serum 30 μl samples containing 20 μg total protein were electrophoresed as above. Protein was transferred to 0.45 μm nitrocellulose membranes, which had been blocked with 5% (w/v) non-fat dried milk (Marvel) in Tris-buffered saline, pH 7.5, at 4° C. overnight. Membranes were washed for 15 min in 0.1% Tween 20 buffered saline prior to adding the primary antibodies. Both primary and secondary antibodies were used at a dilution of 1:1000. Incubation was for 1 h at room temperature, and development was by ECL. Blots were scanned by a densitometer to quantify differences.

[5] = system: white and brown adipocytes; test: Glucose uptake ex vivo into white and brown adipocytes of treated ob/ob mice; assay type: in vivo, mouse; conditions: ob/ob mice treated 8 days; absence and presence of insulin (10 nM)
Method: Single cell suspensions of white and brown adipocytes were obtained by incubation of minced epididymal subcutaneous and visceral WAT and BAT for 2 and 2.5 h, respectively, with Krebs-Ringer bicarbonate (KRBB) containing 1.5 mgml^−1 collagenase and 4% BSA under 95% oxygen-5% CO2 at 37° C. Adipocytes were washed twice in 1 ml KRBB, pH7.2, and then incubated for 10 min at room temperature in 0.5 ml KRBB, containing 18.5 MBq 2-[1-^14C] deoxy-D-glucose (2-DG), together with non-radioactive 2-DG, to give a final concentration of 0.1 mM, in the absence or presence of insulin (10 nM). Uptake was terminated by addition of 1 ml ice-cold KRBB without glucose. Adipocytes were washed three times with 1 ml KRBB and lysed by the addition of 0.5 ml 1M NaOH. The uptake of 2-[1-^14C] DG was determined by liquid scintillation counting.

[6] = system: gastrocnemius muscle; test: Glucose uptake ex vivo into isolated muscle of treated ob/ob mice; assay type: in vivo, mouse; conditions: ob/ob mice treated 8 days; presence of insulin
[7] = system: 3T3 L1 adipocytes; conditions: cited from earlier work
[8] = oral ZAG + propanolol 40 mgkg^−1

CC(C)NC[C@H](O)COc1cccc2ccccc12 (racemic) [propanolol]
effect of propanolol on weight gain of mice administered PBS ([1]; PBS + propanolol): no effect
effect of propanolol on ZAG-induced weight loss ([1]; oral ZAG 50 μg daily + propanolol 40 mg/kg po daily): blocked; also recorded: attenuated
effect of propanolol on ZAG-induced weight loss ([1]; oral ZAG + propanolol 20 mgkg^−1): did not prevent the weight loss
effect of propanolol on ZAG induced increase in rectal temperature [1, 8]: completely attenuated
effect of propanolol on ZAG induced reduction in urinary excretion of glucose [1, 8]: completely attenuated
effect of propanolol on ZAG-induced increase in insulin sensitivity [2]: blocked; also recorded: attenuated
effect of propanolol on ZAG-reduced peak blood glucose concentration / improvement in glucose disposal in glucose tolerance test [2]: blocked; also recorded: attenuated
effect of propanolol on decrease in serum glucose after ZAG administration [3]: completely attenuated
effect of propanolol on decrease in serum insulin levels after ZAG administration [3]: completely attenuated
murine ZAG in the serum of animals given ZAG and co-administered propanolol [4]: no increase; also recorded: attenuated
effect of propanolol on ZAG-induced glucose uptake into BAT [5]: attenuated
effect of propanolol on ZAG-induced stimulation of glucose uptake ex vivo into epididymal, subcutaneous and visceral adipocytes [5]: attenuated
effect of propanolol on ZAG-induced glucose uptake ex vivo into gastrocnemius muscle [6]: attenuated

C[C@H](Cc1ccc(OCC(=O)O)cc1)NC[C@H](O)c1cccc(Cl)c1 [BRL37344]
levels of ZAG mRNA [7]: increase
